What is called IC50 is the concentration that gives 50% inhibition. Low readings indicate greater potency in that assay, high ones weaker potency in that assay.

This note sets out measurements from BindingDB's records for patent US20250074911 (Crossfire Oncology Holding, 2025).

The test deals with Tyrosine-protein kinase BTK (Homo sapiens, UniProt Q06187). The experiment in a line: Biochemical kinase assay wt-BTK. On the procedure:
To determine the inhibitory activity of compounds on wt-BTK enzyme activity, the IMAP assay (Molecular Devices) was used. Compounds were serially diluted in dimethylsulfoxide (DMSO) and subsequently in 4% DMSO in IMAP reaction buffer, which consists of 10 mM Tris-HCl, pH 15 7.5, 10 mM MgCl2, 0.01% Tween-20, 0.1% NaN3 and 1 mM freshly prepared dithiotreitol (DTT). Compound solution was mixed with an equal volume of full-length wt-BTK enzyme (Carna Biosciences, cat. no. 08-180) in IMAP reaction buffer. After pre-incubation of 1 hour in the dark at room temperature, fluorescein-labeled MBP-derived substrate peptide (Molecular Devices, cat. no. RP 7123) was added, followed by ATP to start the reaction. Final enzyme concentration was 1.2 nM, final substrate concentration 50 nM, and final ATP concentration was 4 μM. The reaction was allowed to proceed for 2 hours at room temperature in the dark. The reaction was stopped by quenching with IMAP progressive binding solution according to the protocol of the manufacturer (Molecular Devices). Fluorescein polarization was measured on an Envision multimode reader (Perkin Elmer, Waltham, MA, U.S.A.).

Tyrosine-protein kinase BTK, sequence (Q06187 whole entry): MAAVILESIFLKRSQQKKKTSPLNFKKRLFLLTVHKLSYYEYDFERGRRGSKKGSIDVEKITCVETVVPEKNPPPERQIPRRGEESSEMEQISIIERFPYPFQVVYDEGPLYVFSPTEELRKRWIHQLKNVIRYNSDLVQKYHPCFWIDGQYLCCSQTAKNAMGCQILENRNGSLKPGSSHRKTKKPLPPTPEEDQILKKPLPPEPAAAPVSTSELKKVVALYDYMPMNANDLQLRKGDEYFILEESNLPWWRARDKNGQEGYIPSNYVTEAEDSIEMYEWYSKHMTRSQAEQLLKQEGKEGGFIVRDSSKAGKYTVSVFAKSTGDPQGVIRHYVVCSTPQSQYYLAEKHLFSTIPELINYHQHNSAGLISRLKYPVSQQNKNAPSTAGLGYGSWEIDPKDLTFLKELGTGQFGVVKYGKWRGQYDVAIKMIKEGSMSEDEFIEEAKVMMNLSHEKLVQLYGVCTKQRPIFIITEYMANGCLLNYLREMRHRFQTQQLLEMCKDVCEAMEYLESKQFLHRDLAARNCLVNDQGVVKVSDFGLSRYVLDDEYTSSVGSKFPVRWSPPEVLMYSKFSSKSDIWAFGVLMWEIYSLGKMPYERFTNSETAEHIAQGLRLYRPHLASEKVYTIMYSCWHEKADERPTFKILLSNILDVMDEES

Turning to `C[C@@H]1CCn2nc(-c3ccc(C(=O)Nc4cc(C(F)(F)F)ccn4)cc3)c3c(N)ncc(c32)/C=C/CCCCC(=O)N1` [US20250074911, Example 54], the IC50 was less than 5 nM.
